Measurements taken from ChEMBL document CHEMBL4402560, “Sarco/Endoplasmic Reticulum Calcium ATPase Inhibitors: Beyond Anticancer Perspective” (J Med Chem, 2020).

Key:
[1] = Inhibition of SERCA in chicken cerebellar microsomes; parameters: species or system Gallus gallus, Cerebellum
Oryctolagus cuniculus [2] = organism: Oryctolagus cuniculus; assay: Inhibition of rabbit kidney Sodium/potassium-transporting ATPase by PK/LDH method
Oryctolagus cuniculus [3] = organism: Oryctolagus cuniculus; assay: Inhibition of rabbit kidney Sodium/potassium-transporting ATPase by malachite green based colorimetric method
[4] = molecular target: Potassium-transporting ATPase (Sus scrofa, UniProt P19156); assay: Inhibition of pig gastric mucosa Potassium-transporting ATPase by malachite green based colorimetric method; type: protein-complex assay, Sus scrofa domesticus
[5] = molecular target: T1, Sarcoplasmic/endoplasmic reticulum calcium ATPase 1 (Oryctolagus cuniculus, UniProt P04191); assay: Inhibition of rabbit skeletal muscle microsomes SERCA1a incubated for 10 mins by enzyme-coupled method
[6] = molecular target: Sarcoplasmic/endoplasmic reticulum calcium ATPase 1 (Homo sapiens, UniProt O14983); assay: Inhibition of SERCA1a (unknown origin) incubated for 10 mins by enzyme-coupled method
[7] = Inhibition of rabbit skeletal muscle microsomes SERCA incubated for 3 mins by [gamma32P]ATP based radiometric assay; parameters: species or system Oryctolagus cuniculus
[8] = Inhibition of SERCA (unknown origin); parameters: species or system Homo sapiens
[9] = Inhibition of Sodium/potassium-transporting ATPase in porcine brain peincubated for 5 mins followed by addition of ATP and measured after 15 mins; type: tissue-based, Sus scrofa domesticus
[10] = Inhibition of Sodium/potassium-transporting ATPase in guinea pig brain peincubated for 5 mins followed by addition of ATP and measured after 15 mins; type: tissue-based, Cavia porcellus
[11] = Inhibition of Sodium/potassium-transporting ATPase in guinea pig heart peincubated for 5 mins followed by addition of ATP and measured after 15 mins; type: tissue-based, Cavia porcellus
[12] = Inhibition of Sodium/potassium-transporting ATPase in dog kidney peincubated for 5 mins followed by addition of ATP and measured after 15 mins; type: tissue-based, Canis lupus familiaris
[13] = molecular target: T1, Sarcoplasmic/endoplasmic reticulum calcium ATPase 1; assay: Inhibition of rabbit SERCA1a incubated for 10 mins by enzyme-coupled method
[14] = Inhibition of porcine cerebellar microsomes SERCA2b incubated for 10 mins by enzyme-coupled method; parameters: species or system Sus scrofa domesticus, Cerebellum
[15] = Inhibition of fish liver microsomes SERCA by enzyme-coupled method; parameters: species or system Squalius cephalus
[16] = molecular target: T1, Sarcoplasmic/endoplasmic reticulum calcium ATPase 1; assay: Inhibition of rabbit SERCA1a
[17] = molecular target: T1, Sarcoplasmic/endoplasmic reticulum calcium ATPase 1; assay: Inhibition of SERCA1a in rabbit microsomes
[18] = molecular target: Sarcoplasmic/endoplasmic reticulum calcium ATPase 2 (Mus musculus, UniProt O55143); assay: Inhibition of SERCA2b in mouse testicular microsomes; parameters: species or system Testis
[19] = molecular target: Sarcoplasmic/endoplasmic reticulum calcium ATPase 3 (Mus musculus, UniProt Q64518); assay: Inhibition of SERCA3 in mouse testicular microsomes; parameters: species or system Testis
HeLa = assay: Antiproliferative activity against human HeLa cells; type: functional, cell-based
[20] = molecular target: Sarcoplasmic/endoplasmic reticulum calcium ATPase 1 (Mus musculus) (UniProt Q8R429); assay: Inhibition of SERCA1 in C57BL/6 mouse primary neurons at 30 uM by UV-Vis spectrophotometric method relative to control
[21] = molecular target: Sarcoplasmic/endoplasmic reticulum calcium ATPase 2 (Mus musculus) (UniProt O55143); assay: Inhibition of SERCA2 in C57BL/6 mouse primary neurons at 30 uM by UV-Vis spectrophotometric method relative to control
[22] = molecular target: T1, Sarcoplasmic/endoplasmic reticulum calcium ATPase 1; assay: Inhibition of rabbit skeletal muscle microsomes SERCA1a
[23] = molecular target: Sodium/potassium-transporting ATPase; assay: Competitive inhibition of Sodium/potassium-transporting ATPase (unknown origin) by liquid scintillation counting method; type: protein-complex assay, Homo sapiens
[24] = Competitive inhibition of SERCA (unknown origin) by liquid scintillation counting method; parameters: species or system Homo sapiens

T1 sequence (P04191 whole entry): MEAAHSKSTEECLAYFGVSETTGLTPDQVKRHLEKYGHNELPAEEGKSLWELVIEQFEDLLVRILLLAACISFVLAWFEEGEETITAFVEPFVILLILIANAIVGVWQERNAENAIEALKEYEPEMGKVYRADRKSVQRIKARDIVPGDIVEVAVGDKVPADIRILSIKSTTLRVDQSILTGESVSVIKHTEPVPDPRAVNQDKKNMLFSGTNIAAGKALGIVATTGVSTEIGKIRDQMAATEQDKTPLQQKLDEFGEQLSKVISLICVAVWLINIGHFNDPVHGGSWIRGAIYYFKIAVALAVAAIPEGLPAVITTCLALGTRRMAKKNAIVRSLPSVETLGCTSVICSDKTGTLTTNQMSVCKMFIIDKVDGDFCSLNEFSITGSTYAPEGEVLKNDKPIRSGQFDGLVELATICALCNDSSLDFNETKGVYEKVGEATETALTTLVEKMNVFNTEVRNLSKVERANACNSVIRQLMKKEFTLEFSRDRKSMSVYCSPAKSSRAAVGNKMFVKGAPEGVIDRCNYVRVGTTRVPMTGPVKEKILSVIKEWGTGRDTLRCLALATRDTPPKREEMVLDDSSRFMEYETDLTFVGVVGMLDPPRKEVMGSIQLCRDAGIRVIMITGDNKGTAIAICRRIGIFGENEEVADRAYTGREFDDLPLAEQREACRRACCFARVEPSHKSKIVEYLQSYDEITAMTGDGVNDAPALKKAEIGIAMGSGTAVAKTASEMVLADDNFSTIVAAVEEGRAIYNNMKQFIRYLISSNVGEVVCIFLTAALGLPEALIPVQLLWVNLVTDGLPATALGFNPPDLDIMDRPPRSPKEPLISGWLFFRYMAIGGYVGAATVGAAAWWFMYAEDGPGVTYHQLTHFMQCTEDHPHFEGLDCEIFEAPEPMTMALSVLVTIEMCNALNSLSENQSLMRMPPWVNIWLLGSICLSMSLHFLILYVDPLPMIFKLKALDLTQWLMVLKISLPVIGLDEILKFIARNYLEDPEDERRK
Chain of Sarcoplasmic/endoplasmic reticulum calcium ATPase 1 (Mus musculus) (Q8R429 whole entry): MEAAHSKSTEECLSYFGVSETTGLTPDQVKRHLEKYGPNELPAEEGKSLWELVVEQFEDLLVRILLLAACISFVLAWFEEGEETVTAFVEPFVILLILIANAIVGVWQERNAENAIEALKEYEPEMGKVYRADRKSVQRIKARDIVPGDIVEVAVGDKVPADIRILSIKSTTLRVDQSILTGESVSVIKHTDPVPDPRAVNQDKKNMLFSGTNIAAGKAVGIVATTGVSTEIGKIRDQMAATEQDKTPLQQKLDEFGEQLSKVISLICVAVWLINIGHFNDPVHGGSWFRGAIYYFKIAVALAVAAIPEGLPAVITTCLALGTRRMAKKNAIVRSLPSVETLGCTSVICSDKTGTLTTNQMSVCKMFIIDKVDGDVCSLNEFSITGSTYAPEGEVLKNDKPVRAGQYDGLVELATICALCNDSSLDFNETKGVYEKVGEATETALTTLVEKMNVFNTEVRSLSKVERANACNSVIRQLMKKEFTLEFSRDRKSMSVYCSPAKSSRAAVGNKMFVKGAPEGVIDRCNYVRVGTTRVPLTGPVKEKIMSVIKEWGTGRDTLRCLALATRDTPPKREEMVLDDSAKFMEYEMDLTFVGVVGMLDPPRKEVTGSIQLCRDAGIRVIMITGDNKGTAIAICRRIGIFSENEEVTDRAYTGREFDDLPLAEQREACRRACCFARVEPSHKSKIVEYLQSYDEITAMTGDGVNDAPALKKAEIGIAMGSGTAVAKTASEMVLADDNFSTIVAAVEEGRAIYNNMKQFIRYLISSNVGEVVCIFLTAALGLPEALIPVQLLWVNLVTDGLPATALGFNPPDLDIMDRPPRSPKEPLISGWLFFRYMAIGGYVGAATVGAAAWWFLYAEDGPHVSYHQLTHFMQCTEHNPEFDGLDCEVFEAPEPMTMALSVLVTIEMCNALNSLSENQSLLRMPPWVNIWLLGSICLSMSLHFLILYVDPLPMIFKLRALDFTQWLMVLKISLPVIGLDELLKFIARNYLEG
Chain of Sarcoplasmic/endoplasmic reticulum calcium ATPase 1 (Homo sapiens, UniProt O14983) (O14983 whole entry): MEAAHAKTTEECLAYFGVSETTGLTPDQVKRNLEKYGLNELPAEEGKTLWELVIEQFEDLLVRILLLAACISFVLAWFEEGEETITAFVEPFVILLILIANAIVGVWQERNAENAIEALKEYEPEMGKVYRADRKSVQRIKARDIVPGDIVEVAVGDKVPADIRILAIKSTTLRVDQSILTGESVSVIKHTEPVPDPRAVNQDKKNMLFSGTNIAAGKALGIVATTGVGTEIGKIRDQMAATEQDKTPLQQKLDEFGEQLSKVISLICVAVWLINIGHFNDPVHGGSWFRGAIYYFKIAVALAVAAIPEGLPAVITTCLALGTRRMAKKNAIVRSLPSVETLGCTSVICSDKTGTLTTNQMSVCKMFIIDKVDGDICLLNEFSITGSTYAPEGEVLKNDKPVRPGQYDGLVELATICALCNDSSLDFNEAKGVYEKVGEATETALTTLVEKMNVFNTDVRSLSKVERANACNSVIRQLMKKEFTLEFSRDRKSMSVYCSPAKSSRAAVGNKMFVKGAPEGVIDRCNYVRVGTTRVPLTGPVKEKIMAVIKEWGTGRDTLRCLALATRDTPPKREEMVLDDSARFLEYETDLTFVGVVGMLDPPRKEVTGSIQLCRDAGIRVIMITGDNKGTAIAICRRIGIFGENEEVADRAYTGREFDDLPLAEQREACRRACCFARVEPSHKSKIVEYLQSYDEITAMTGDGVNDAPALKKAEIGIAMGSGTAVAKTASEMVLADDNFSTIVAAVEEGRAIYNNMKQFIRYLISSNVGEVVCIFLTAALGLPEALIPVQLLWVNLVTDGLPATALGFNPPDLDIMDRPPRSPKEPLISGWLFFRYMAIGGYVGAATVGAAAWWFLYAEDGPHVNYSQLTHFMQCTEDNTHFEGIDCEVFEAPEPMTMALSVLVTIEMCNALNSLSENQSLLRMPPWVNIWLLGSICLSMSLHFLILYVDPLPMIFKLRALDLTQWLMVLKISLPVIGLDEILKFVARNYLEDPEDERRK
Chain of Sarcoplasmic/endoplasmic reticulum calcium ATPase 3 (Q64518 whole entry): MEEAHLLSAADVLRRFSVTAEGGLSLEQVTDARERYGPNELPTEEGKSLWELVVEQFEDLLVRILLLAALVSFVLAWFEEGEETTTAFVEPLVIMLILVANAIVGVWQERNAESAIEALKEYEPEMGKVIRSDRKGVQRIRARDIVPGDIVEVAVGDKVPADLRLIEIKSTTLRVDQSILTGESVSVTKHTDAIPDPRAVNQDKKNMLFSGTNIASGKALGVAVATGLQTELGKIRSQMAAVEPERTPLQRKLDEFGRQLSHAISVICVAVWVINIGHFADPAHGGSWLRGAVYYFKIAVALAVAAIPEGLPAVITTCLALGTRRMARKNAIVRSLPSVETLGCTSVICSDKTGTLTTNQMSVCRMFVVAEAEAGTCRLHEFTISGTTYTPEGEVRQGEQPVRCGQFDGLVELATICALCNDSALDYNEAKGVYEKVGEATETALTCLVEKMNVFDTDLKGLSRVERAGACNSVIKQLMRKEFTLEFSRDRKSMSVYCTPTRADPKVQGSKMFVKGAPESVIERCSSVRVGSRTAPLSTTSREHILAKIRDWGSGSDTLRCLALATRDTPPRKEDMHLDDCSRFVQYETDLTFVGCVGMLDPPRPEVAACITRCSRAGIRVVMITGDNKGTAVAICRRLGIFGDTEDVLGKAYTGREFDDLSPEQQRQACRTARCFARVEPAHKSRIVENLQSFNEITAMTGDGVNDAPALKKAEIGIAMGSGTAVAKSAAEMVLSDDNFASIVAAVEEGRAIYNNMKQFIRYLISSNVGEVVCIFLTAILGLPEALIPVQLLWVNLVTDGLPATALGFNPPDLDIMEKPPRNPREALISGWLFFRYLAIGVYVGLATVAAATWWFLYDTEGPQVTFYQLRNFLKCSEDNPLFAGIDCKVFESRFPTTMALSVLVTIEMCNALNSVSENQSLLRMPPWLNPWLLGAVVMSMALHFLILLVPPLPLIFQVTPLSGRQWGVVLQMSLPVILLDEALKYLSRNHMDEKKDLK
Chain of Sarcoplasmic/endoplasmic reticulum calcium ATPase 2 (Mus musculus) (O55143 whole entry): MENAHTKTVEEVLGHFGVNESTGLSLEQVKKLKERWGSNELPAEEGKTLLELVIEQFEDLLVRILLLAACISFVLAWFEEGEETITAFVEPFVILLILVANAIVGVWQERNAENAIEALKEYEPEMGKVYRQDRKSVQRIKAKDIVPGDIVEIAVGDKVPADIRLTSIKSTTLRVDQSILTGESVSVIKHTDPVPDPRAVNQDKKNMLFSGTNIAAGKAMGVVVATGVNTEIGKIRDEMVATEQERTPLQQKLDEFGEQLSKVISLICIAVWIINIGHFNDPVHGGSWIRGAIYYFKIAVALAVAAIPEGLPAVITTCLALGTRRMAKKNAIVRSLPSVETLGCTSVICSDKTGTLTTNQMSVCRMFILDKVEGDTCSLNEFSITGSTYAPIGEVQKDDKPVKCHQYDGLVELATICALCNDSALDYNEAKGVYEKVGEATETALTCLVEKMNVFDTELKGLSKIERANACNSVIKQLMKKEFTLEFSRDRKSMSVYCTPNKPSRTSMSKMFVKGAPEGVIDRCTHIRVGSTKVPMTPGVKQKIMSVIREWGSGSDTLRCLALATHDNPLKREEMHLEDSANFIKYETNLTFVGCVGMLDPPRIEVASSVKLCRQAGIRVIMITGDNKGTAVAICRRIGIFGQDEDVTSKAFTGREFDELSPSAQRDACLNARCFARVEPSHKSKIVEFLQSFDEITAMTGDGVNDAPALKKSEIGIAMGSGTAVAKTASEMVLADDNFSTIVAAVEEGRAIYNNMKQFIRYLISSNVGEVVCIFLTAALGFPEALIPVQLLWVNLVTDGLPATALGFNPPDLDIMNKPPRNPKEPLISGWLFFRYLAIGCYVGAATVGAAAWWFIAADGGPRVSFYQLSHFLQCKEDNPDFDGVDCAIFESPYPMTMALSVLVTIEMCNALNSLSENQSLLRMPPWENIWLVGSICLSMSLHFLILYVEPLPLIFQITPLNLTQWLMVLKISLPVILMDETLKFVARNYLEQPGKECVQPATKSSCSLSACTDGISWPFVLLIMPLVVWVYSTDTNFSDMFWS
Chain of Sarcoplasmic/endoplasmic reticulum calcium ATPase 2 (O55143 whole entry): as above

In the case of SODIUM ORTHOVANAD, the IC50 [1] is reported as 10 to 100 µM.
In the case of Clc1ccccc1C(c1ccccc1)(c1ccccc1)n1ccnc1 [CLOTRIMAZOLE], the K0.5 (Oryctolagus cuniculus [2]) is reported as 24 to 30 µM, the K0.5 (Oryctolagus cuniculus [3]) is reported as 24 to 30 µM and the IC50 [4] is reported as 5.2 µM.
COc1ccc2c(c[n+](C)c3c4cc5c(cc4ccc23)OCO5)c1OC [CHELERYTHRINE] gave an IC50 [5] of 1.2 µM, an IC50 [6] of 27 µM and an IC50 [7] of 1.5 µM.
In the case of CC1=CCC[C@@H]2[C@@](C)(CC/C(C)=C/Cn3c[n+](C)c4ncnc(N)c43)[C@H](C)CC[C@@]12C, the IC50 [8] is reported as 5.58 µM, the IC50 [9] is reported as 11 to 29 µM and the IC50 [10] is reported as 11 to 29 µM. It also gave an IC50 [11] of 11 to 29 µM and an IC50 [12] of 11 to 29 µM.
In the case of C/C=C(\C)C(=O)O[C@@H]1C[C@H]2C(=C1C)[C@@H]1OC(=O)[C@@](C)(O)[C@@]1(O)[C@@H](OC(=O)[C@H](C)CC)C[C@@]2(C)OC(C)=O, the IC50 [13] is reported as 20 µM.
Compound Clc1ccc(C(c2ccc(Cl)cc2)[n+]2ccn(CC(OCc3ccc(Cl)cc3Cl)c3ccc(Cl)cc3Cl)c2)cc1 (configuration not stated) [CALMIDAZOLIUM CHLORIDE] has an IC50 [14] of 0.5 µM and an IC50 [5] of 0.5 µM.
For CCCCCCCCCc1ccc(O)cc1 [4-NONYLPHENOL], the IC50 [15] was 4 µM, the IC50 [16] was 0.35 to 6 µM and the IC50 [17] was 0.35 to 6 µM. It also gave an IC50 [18] of 0.35 to 6 µM and an IC50 [19] of 0.35 to 6 µM.
Compound C[C@H]1O[C@@H](O[C@H]2CC[C@@]3(C)[C@@H](CC[C@]4(C)[C@@H]3C=C[C@]35OC[C@@]6(CCC(C)(C)C[C@H]63)[C@H](O)C[C@]54C)[C@]2(C)CO)[C@H](O)[C@@H](O[C@@H]2O[C@H](CO)[C@@H](O)[C@H](O)[C@H]2O)[C@H]1O has an IC50 [8] of 50 µM, an IC50 (HeLa) of 10 µM and an inhibition [20] of 10%. For the same compound, the inhibition [21] was 18%.
Compound N=C(N)SCc1cc(CSC(=N)N)c(Br)c(CSC(=N)N)c1Br has an IC50 [22] of 29 µM, a Ki [23] of 0.32 µM and a Ki [24] of 20 µM.
